Measured values: ChEMBL document CHEMBL1201862, “PubChem BioAssay data set” (2004)
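Briefly, cells in 96-well plates were exposed to five compound concentrations for 48 h, and endpoints were estimated by linear interpolation. GI50 is the concentration that inhibits growth by half.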 Activity calls are given as the source filed them. Rule as the data show it: active = GI50 up to about 1.1 µM and inactive = higher.

What was measured:
Assay in all cases: NCI anticancer screen, dose series, 48 h
IGROV-1 = system: IGROV-1
HT-29 = system: HT-29
RPMI-8226 = system: RPMI-8226
SK-MEL-5 = system: SK-MEL-5
HCC 2998 = system: HCC 2998
MDA-MB-435 = system: MDA-MB-435
SK-OV-3 = system: SK-OV-3
NCI-H226 = system: NCI-H226
SNB-19 = system: SNB-19
Hs-578T = system: Hs-578T
NCI-H23 = system: NCI-H23
DU-145 = system: DU-145
SW-620 = system: SW-620
NCI-H460 = system: NCI-H460
OVCAR-8 = system: OVCAR-8
RXF 393 = system: RXF 393
U-251 = system: U-251
NCI-H522 = system: NCI-H522
EKVX = system: EKVX
DMS-273 = system: DMS-273

Measured: GI50

O=c1nc2n(CCO)c(-c3ccccc3)c(-c3ccccc3)nc-2c(=O)[nH]1
inactive: IGROV-1 > 100 µM | HT-29 > 100 µM | RPMI-8226 > 100 µM | SK-MEL-5 > 100 µM | HCC 2998 > 100 µM | MDA-MB-435 > 100 µM | SK-OV-3 > 100 µM | NCI-H226 > 100 µM | SNB-19 > 100 µM | Hs-578T > 100 µM | NCI-H23 > 100 µM | DU-145 > 100 µM | SW-620 > 100 µM | NCI-H460 > 100 µM | OVCAR-8 > 100 µM | RXF 393 > 100 µM | U-251 > 100 µM | NCI-H522 > 100 µM | EKVX > 100 µM

COc1ccc(Nc2c(C#N)c3n(c4ccccc24)c2ccccc2[n+]3C)cc1OC
inactive: IGROV-1 3.58 µM | HT-29 3.13 µM | RPMI-8226 1.98 µM | SK-MEL-5 3.49 µM | HCC 2998 4.17 µM | MDA-MB-435 3.73 µM | SK-OV-3 5.14 µM | NCI-H226 3.05 µM | SNB-19 3.92 µM | Hs-578T 2.86 µM | NCI-H23 2.94 µM | DU-145 2.81 µM | SW-620 2.44 µM | NCI-H460 1.93 µM | OVCAR-8 1.67 µM | RXF 393 2.82 µM | U-251 2.7 µM | NCI-H522 3.16 µM | EKVX 2.93 µM

CC1(C)CC2(C)ON=C(c3ccccc3)N2c2ccccc2N1 (stereo not given)
inactive: IGROV-1 32.1 µM | HT-29 16.4 µM | RPMI-8226 29 µM | SK-MEL-5 16.7 µM | HCC 2998 35.2 µM | MDA-MB-435 19.8 µM | SK-OV-3 21.7 µM | NCI-H226 17.3 µM | SNB-19 24.2 µM | Hs-578T 18.8 µM | NCI-H23 25 µM | DU-145 33.1 µM | SW-620 36.5 µM | NCI-H460 20.9 µM | OVCAR-8 27.7 µM | RXF 393 20.8 µM | U-251 19.8 µM | NCI-H522 21.4 µM | EKVX 24 µM

O=N/N=c1\o[n-][n+](CCc2ccccc2)c1Cc1/c(=N/N=O)o[n-][n+]1CCc1ccccc1
inactive: IGROV-1 25.1 µM | HT-29 76 µM | RPMI-8226 43.1 µM | SK-MEL-5 31.2 µM | HCC 2998 44.9 µM | MDA-MB-435 39.7 µM | SK-OV-3 34.4 µM | NCI-H226 29.9 µM | SNB-19 28.2 µM | Hs-578T 28.7 µM | NCI-H23 28.4 µM | DU-145 55.5 µM | SW-620 89.7 µM | NCI-H460 33.7 µM | OVCAR-8 21.7 µM | RXF 393 39.2 µM | U-251 22.1 µM | NCI-H522 23.1 µM | EKVX 50 µM

Cc1ccc2c(c1C)C(=O)C1(C2)Cc2ccc3c(c2C1=O)CCC3 (stereo not given)
inactive: IGROV-1 > 100 µM | HT-29 > 100 µM | RPMI-8226 > 100 µM | SK-MEL-5 > 100 µM | HCC 2998 > 100 µM | MDA-MB-435 > 100 µM | SK-OV-3 > 100 µM | NCI-H226 > 100 µM | SNB-19 > 100 µM | Hs-578T > 100 µM | NCI-H23 > 100 µM | DU-145 > 100 µM | SW-620 > 100 µM | NCI-H460 > 100 µM | OVCAR-8 > 100 µM | RXF 393 41.8 µM | U-251 > 100 µM | NCI-H522 > 100 µM | EKVX > 100 µM

CC(=O)OC1CC2C(C)(C)C(=O)C=CC2(C)C2CCC3(C)C(c4ccoc4)OC(=O)C4OC43C12C (stereo not given)
inactive: IGROV-1 10.1 µM | HT-29 7.46 µM | RPMI-8226 2.64 µM | SK-MEL-5 5.62 µM | HCC 2998 3.33 µM | MDA-MB-435 3.27 µM | SK-OV-3 7.71 µM | NCI-H226 22.2 µM | SNB-19 19.5 µM | Hs-578T 3.88 µM | NCI-H23 7.53 µM | DU-145 2.85 µM | SW-620 6.28 µM | NCI-H460 3.48 µM | OVCAR-8 8.04 µM | RXF 393 4.66 µM | U-251 6.14 µM | NCI-H522 5.18 µM | EKVX 22.5 µM

COC1CC(OC2CCC3(C)C(CCC45CCC(C6=CC(=O)OC6)C(C)(CCC43)C5=O)C2)OC(C)C1O (stereo not given)
inactive: IGROV-1 38.7 µM | HT-29 39.5 µM | RPMI-8226 > 10 µM | SK-MEL-5 18.1 µM | HCC 2998 13.1 µM | MDA-MB-435 > 100 µM | SK-OV-3 46.1 µM | NCI-H226 53.1 µM | SNB-19 20.3 µM | Hs-578T 28.2 µM | NCI-H23 22.5 µM | DU-145 15.9 µM | SW-620 43.7 µM | NCI-H460 18 µM | OVCAR-8 55.8 µM | RXF 393 24 µM | U-251 46.2 µM | NCI-H522 27.9 µM | EKVX 32.4 µM

O=C1OC(=O)c2cc(S(=O)(=O)c3ccc4c(c3)C(=O)OC4=O)ccc21
inactive: IGROV-1 > 100 µM | HT-29 > 100 µM | RPMI-8226 > 100 µM | SK-MEL-5 > 100 µM | HCC 2998 > 100 µM | MDA-MB-435 > 100 µM | SK-OV-3 > 100 µM | NCI-H226 > 100 µM | SNB-19 > 100 µM | Hs-578T > 100 µM | NCI-H23 > 100 µM | DU-145 > 100 µM | SW-620 > 100 µM | NCI-H460 > 100 µM | OVCAR-8 > 100 µM | RXF 393 > 100 µM | U-251 > 100 µM | NCI-H522 > 100 µM | EKVX > 100 µM

Cc1ccc(F)c2[nH]c(-c3ccccc3)cc(=O)c12
inactive: IGROV-1 5.3 µM | HT-29 4.57 µM | RPMI-8226 3.96 µM | SK-MEL-5 2.75 µM | HCC 2998 11.9 µM | MDA-MB-435 1.18 µM | SK-OV-3 5.43 µM | NCI-H226 40.1 µM | SNB-19 9.98 µM | Hs-578T 14.9 µM | NCI-H23 9.46 µM | DU-145 8.04 µM | SW-620 4.67 µM | NCI-H460 5.32 µM | OVCAR-8 6.11 µM | RXF 393 3.58 µM | U-251 6.04 µM | NCI-H522 5.69 µM | EKVX > 25.2 µM

CCOC(=O)NC(=O)c1cn(CC(=O)NCC(=O)NCC(=O)NCCCN2CCN(CCCNC(=O)CNC(=O)CNC(=O)Cn3cc(C(=O)NC(=O)OCC)c(=O)[nH]c3=O)CC2)c(=O)[nH]c1=O
inactive: IGROV-1 > 100 µM | HT-29 > 100 µM | DMS-273 > 100 µM | SK-MEL-5 > 100 µM | HCC 2998 > 100 µM | SK-OV-3 > 100 µM | SNB-19 > 100 µM | NCI-H23 > 100 µM | SW-620 > 100 µM | NCI-H460 > 100 µM | OVCAR-8 > 100 µM | U-251 > 100 µM | NCI-H522 > 100 µM

O=C1O[C@H]2[C@H](OC(=O)c3cc(O)c(O)c(O)c3)[C@@H](OC(=O)c3cc(O)c(O)c4c3[C@@H]3C1=CC(=O)C(O)(O)C3(O)O4)[C@H](OC(=O)c1cc(O)c(O)c(O)c1)O[C@@H]2COC(=O)c1cc(O)c(O)c(O)c1 (stereo not given in full) [TERCHEBIN]
inactive: IGROV-1 47.8 µM | HT-29 37.4 µM | RPMI-8226 51.5 µM | SK-MEL-5 75.7 µM | HCC 2998 68.2 µM | MDA-MB-435 38.4 µM | SK-OV-3 38.3 µM | NCI-H226 35.7 µM | SNB-19 > 100 µM | Hs-578T > 100 µM | NCI-H23 42.8 µM | DU-145 76 µM | SW-620 63.5 µM | NCI-H460 30.1 µM | OVCAR-8 39.3 µM | RXF 393 > 100 µM | U-251 54.1 µM | NCI-H522 32.1 µM | EKVX 39.4 µM

CCOC(=O)C(=CNc1ccc(F)c(F)c1)C(=O)OCC
inactive: IGROV-1 > 100 µM | HT-29 94 µM | RPMI-8226 64.1 µM | SK-MEL-5 > 100 µM | HCC 2998 > 100 µM | MDA-MB-435 > 100 µM | SK-OV-3 > 100 µM | NCI-H226 > 100 µM | SNB-19 > 100 µM | Hs-578T > 100 µM | NCI-H23 > 100 µM | DU-145 > 100 µM | SW-620 > 100 µM | NCI-H460 > 100 µM | OVCAR-8 > 100 µM | RXF 393 > 100 µM | U-251 > 100 µM | NCI-H522 81.7 µM | EKVX 81.5 µM

COc1cc2c(c(OC)c1OC)C(=O)[C@H](Br)[C@H]2NC(=O)NCCCl
inactive: IGROV-1 68.1 µM | HT-29 > 100 µM | RPMI-8226 > 100 µM | SK-MEL-5 37.2 µM | HCC 2998 > 100 µM | MDA-MB-435 40.5 µM | SK-OV-3 59 µM | NCI-H226 88.5 µM | SNB-19 > 100 µM | Hs-578T > 100 µM | NCI-H23 > 100 µM | DU-145 > 100 µM | SW-620 > 100 µM | NCI-H460 80.4 µM | OVCAR-8 > 100 µM | RXF 393 97.1 µM | U-251 51.1 µM | NCI-H522 > 100 µM | EKVX 50.1 µM

O=C(O)Cc1ccc(Oc2nc3ccccc3nc2-c2ccccc2)cc1
inactive: IGROV-1 45.9 µM | HT-29 61.9 µM | RPMI-8226 66.8 µM | SK-MEL-5 59.6 µM | HCC 2998 49.5 µM | MDA-MB-435 86.1 µM | SK-OV-3 > 100 µM | NCI-H226 30.5 µM | SNB-19 > 100 µM | Hs-578T 41.7 µM | NCI-H23 63.8 µM | DU-145 69.7 µM | SW-620 63.1 µM | NCI-H460 57.8 µM | OVCAR-8 > 100 µM | RXF 393 29.2 µM | U-251 56.2 µM | NCI-H522 42.1 µM | EKVX 27.7 µM
